One data set addresses T1, Flt3 kinase (Homo sapiens, UniProt P36888).
T1 construct: purchased life PV6253
T1 sequence (P36888 27-993): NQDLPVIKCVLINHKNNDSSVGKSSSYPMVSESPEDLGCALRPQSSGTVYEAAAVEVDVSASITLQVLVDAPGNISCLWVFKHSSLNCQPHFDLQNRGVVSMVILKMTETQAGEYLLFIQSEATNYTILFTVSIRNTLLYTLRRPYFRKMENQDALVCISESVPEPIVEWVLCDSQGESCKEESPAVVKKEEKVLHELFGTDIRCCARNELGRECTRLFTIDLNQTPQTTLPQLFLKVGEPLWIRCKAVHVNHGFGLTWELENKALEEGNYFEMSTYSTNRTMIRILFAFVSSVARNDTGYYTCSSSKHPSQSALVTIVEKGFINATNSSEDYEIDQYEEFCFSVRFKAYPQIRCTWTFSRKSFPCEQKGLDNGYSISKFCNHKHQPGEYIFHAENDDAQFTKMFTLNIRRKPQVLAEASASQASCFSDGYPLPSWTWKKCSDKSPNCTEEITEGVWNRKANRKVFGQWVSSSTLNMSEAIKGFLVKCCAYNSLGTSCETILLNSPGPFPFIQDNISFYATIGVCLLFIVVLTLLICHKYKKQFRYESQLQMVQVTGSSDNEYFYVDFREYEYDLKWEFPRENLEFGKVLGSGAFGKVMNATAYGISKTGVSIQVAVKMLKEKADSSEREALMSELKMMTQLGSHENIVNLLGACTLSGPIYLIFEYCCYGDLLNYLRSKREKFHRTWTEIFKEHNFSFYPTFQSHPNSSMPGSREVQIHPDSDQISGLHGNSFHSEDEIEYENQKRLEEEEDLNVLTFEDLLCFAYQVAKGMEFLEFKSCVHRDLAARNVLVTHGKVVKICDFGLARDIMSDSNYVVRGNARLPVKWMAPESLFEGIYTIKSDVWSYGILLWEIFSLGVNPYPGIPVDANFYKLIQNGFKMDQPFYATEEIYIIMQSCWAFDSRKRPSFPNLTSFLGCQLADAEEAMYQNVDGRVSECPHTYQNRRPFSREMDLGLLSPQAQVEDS
Kind of data set: Flt3 kinase inhibition, Z'-LYTE FRET. The data set is classed as biochemical. Particulars: ATP 500 μM. An excerpt:
Detection of the activity of kinase: the inhibitory activities of the compounds against Flt3 kinase (life, PV6253) were detected through a second-order reaction by the Z′-LYTE™ technology (detected by fluorescence, enzyme-coupled form, based on the difference in a sensitivity of phosphorylated and non-phosphorylated polypeptides to proteolytic cleavage), based on the principle of fluorescence resonance energy transfer (FRET), using Z′-LYTE™ FRET peptide substrate (Z′-LYTE™ Tyrosine 2 Peptide Substrate, Invitrogen, PV3191).
Enzymatic reaction: To a 384-well plate were added 5 μL of enzyme-substrate system (50 mM HEPES, pH 7.5, 0.01% BRU-35, 10 mM MgC2, 1 mM EGTA), 2.5 μL of a compound (concentration gradient) and 2.5 μL of a mixed solution of ATP (a final concentration of a substrate Z′-LYTE™ Tyrosine 2 Peptide Substrate was 2 μM, and a final concentration of ATP was 500 μM), and then the plate was incubated at 37° C. in the dark for 1 h.
Detecting reaction: 5 μL of Development Solution (1:64 dilution) was added to each well and the plate was incubated at 37° C. in the dark for 1 h, then 5 μL of Stop Reagent was added.
The data analysis method is as follows:
Phosphorylation ratio=1−{(emission ratio×F100%−C100%)/[C0%−C100%+emission ratio×(F100%−F0%)]}×100;
Inhibition rate=100×(1−compound phosphorylation ratio/negative control phosphorylation ratio).
The IC50 values were calculated by GraphPad Prism software.

The subject of data set [1] is Mixed primary macaca fascicularis hepatocytes. Briefly: Metabolism in monkey hepatocytes, UPLC-UV/Q-TOF MS. Format: in vitro ADME. The settings on record: 180 min. The protocol:
(§1) In this example, a UPLC-UV/Q-TOF MS method was used to evaluate the differences in the metabolic processes of TL134 in hepatocytes of five species of human, monkey, canine, rat, and mouse.
(§2) The total volume of each incubation sample was 100 μL, the medium was WME medium (pH 7.4), and the incubation sample included hepatocytes with a cell density of 1.0×10^6 cells/mL and TL134 with a final concentration of 3.0 μM; the negative control sample was incubated with thermal-inactivated mixed hepatocytes (without cell counting) of five species of animals and TL134, and the buffer control sample was incubated with WME medium and TL134. All samples were incubated at 37° C. for 180 min, and then 100 μL of ice-cold acetonitrile was added to stop the reaction. The samples were stored at −70° C. for ready to be tested, and all incubation samples were double samples.
(§3) Triple TOF 5600′ quadrupole-time-of-flight tandem mass spectrometer (Q-TOF MS), equipped with electrospray ionization source (ESI source) and CDS automatic calibration system, AB SCIEX Company, USA; Acquity UPLC liquid chromatography system, including binary infusion pump, autosampler, column oven, degasser and TUV ultraviolet detector, Waters Company, USA. […]

In data set [2] the test system is Mixed primary male beagle canine hepatocytes. Briefly: Metabolism in canine hepatocytes, UPLC-UV/Q-TOF MS. Format: in vitro ADME. The settings on record: 180 min. The protocol:
as §1, §2, §3

This note sets out measurements from patent US20210078972A1, “QUINOLINE OR QUINAZOLINE COMPOUND AND APPLICATION THEREOF” (HAIHE BIOPHARMA CO., LTD., priority 2018, published 2021).

Structures are written as SMILES.

As to `CCc1ccc2c(c1)c(=O)c(C(=O)Nc1ccc(Oc3ncnc4cc(OCCCN5CCOCC5)c(OC)cc34)c(F)c1)c(C)n2C` [GDL5000123, 6-ethyl-N-(3-fluoro-4-((6-methoxy-7-(3-morpholinopropoxy)quinazolin-4-yl)oxy)phenyl)-1,2-dime thyl-4-oxo-1,4-dihydroquinoline-3-carboxamide, reference compound], the midpoint of inhibition on Flt3 kinase, the IC50, lay at 10 nM. In addition, the “prototype drug metabolized, judging from the UV chromatographic peak areas” value is reported as “approximately 41.3%” in data set [1] and around 27.2% in data set [2].
The like results for `COc1cc2c(Oc3ccc(NC(=O)c4c(C)n(C)c5ccc(OC(F)(F)F)cc5c4=O)cc3F)ncnc2cc1OCCCN1CCOCC1` [TL-134, N-(3-fluoro-4-((6-methoxy-7-(3-morpholinopropoxy)quinazolin-4-yl)oxy)phenyl)-1,2-dim ethyl-4-oxo-6-(trifluoromethoxy)-1,4-dihydroquinoline-3-carboxamide] were, in that order, 1.9 nM, around 4.6% and around 15.4%.
